The source of these data is US9005903B2, “Immunomodulating compositions and methods of use thereof” (ImmuneXcite, Inc., priority 2008, dated 2015).

In this assay the test system is IgG antibodies. In words: Serum IgG antibodies binding glucan. The following applies: pooled serum from 10 human donors. The method, then: Serum from 10 unimmunized normal healthy donors was pooled
Pooled serum from 10 human donors, had high levels of IgG antibodies binding β-1,6-glucan, in contrast to low levels of IgG binding β-1,3-glucan. To test how prevalent is the anti-β-b 1,6-glucan antibodies in different donors, we collected sera from 12 individuals. The sera were used to opsonize β-1,6-glucan- or β-1,3-glucan-coated beads, and the beads were incubated with human neutrophils. Eleven of the twelve sera had the high response that the pool did, mediating efficient engulfment and ROS production (FIG. 2A, a representative serum of the high responders). One serum mediated a less efficient engulfment and ROS production (FIG. 2B, low responder).

With β-1,3-glucan, the “levels of IgG antibodies binding the glucan” value was “low levels”.
β-1,6-glucan: the “levels of IgG antibodies binding the glucan” value is “high levels”.
